Patent US10894807B2 (Siemens Medical Solutions USA, Inc., priority 2011, dated 2021)

Target: human PSMA (Homo sapiens (Human), UniProt Q04609)
Assay: Enzymatic assay for in vitro evaluation of PSMA inhibitors (fluorescent assay of PSMA activity, NAAG substrate, OPA detection of glutamate)
Type: biochemical

Chain of human PSMA (Q04609 whole entry): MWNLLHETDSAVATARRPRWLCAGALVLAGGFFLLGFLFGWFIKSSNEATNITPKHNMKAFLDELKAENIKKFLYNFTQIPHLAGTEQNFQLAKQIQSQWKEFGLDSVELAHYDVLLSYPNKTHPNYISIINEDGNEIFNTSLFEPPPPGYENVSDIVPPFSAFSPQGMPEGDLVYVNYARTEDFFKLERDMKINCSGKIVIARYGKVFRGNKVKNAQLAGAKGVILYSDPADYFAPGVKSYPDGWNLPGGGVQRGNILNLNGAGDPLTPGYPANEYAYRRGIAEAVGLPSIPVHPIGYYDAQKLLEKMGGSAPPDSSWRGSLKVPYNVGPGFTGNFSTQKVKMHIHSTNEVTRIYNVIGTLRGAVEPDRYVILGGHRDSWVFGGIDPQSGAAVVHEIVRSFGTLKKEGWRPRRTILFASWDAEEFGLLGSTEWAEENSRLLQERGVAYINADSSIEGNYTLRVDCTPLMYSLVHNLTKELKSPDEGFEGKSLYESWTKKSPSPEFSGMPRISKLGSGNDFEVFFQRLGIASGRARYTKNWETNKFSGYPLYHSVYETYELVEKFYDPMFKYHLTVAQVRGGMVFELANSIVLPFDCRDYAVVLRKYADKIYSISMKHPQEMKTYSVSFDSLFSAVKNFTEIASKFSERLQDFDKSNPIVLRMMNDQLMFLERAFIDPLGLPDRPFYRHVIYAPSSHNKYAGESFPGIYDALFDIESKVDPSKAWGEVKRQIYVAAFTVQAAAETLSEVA

O=C(O)CC[C@H](NC(=O)C[C@@H](NC(=O)CCNC(=O)c1ccc(-n2cc(CCCF)nn2)cc1)C(=O)O)C(=O)O [P245, (S)-2-((R)-3-Carboxy-3-(3-(4-(4-(3-fluoropropyl)-1H-1,2,3-triazol-1-yl)benzamido)propanamido)-propanamido)pentanedioic Acid]
Ki: 156 nM | PSMA Blkg % (1.0 μM): 62%

O=C(O)CC[C@H](NC(=O)N[C@@H](CCCCNC(=O)c1cc(C(=O)NCCCC[C@H](NC(=O)N[C@@H](CCC(=O)O)C(=O)O)C(=O)O)cc(-n2cc(CCCF)nn2)c1)C(=O)O)C(=O)O [P246, (2S,2′S)-2,2′-(((((1S,1′S)-((5-(4-(3-Fluoropropyl)-1H-1,2,3-triazol-1-yl)isophthaloyl)bis(azanediyl))bis(1-carboxypentane-5,1-diyl))bis(azanediyl))bis(carbonyl))bis(azanediyl))dipentanedioic Acid]
Ki: 0.16 nM | PSMA Blkg % (1.0 μM): 100%

O=C(O)CC[C@H](NC(=O)N[C@@H](CCCCn1c(=O)[nH]c2ccc(OCc3cn(CCF)nn3)cc21)C(=O)O)C(=O)O [P247, (S)-2-(3-((S)-1-Carboxy-5-(6-((1-(2-fluoroethyl)-1H-1,2,3-triazol-4-yl)methoxy)-2-oxo-2,3-dihydro-1H-benzo[d]imidazol-1-yl)pentyl)ureido)pentanedioic Acid]
Ki: 0.63 nM | PSMA Blkg % (1.0 μM): 100%

O=C(O)CC[C@H](NC(=O)N[C@@H](Cc1ccc(NC(=O)N2CCN(C(=O)c3ccc(-n4cc(CCCF)nn4)cc3)CC2)cc1)C(=O)O)C(=O)O [P248, (S)-2-(3-((S)-1-Carboxy-2-(4-(4-(4-(4-(3-fluoropropyl)-1H-1,2,3-triazol-1-yl)benzoyl)piperazine-1-carboxamido)phenyl)ethyl)ureido)pentanedioic Acid]
Ki: 3.4 nM | PSMA Blkg % (1.0 μM): 100%

O=C(O)CC[C@H](NC(=O)N[C@@H](CC1CCN(C(=S)Nc2ccc(-n3cc(CCCF)nn3)cc2)CC1)C(=O)O)C(=O)O [P250, (S)-2-(3-((S)-1-Carboxy-2-(1-((4-(4-(3-fluoropropyl)-1H-1,2,3-triazol-1-yl)phenyl)carbamothioyl)piperidin-4-yl)ethyl)ureido)pentanedioic Acid]
Ki: 4.1 nM | PSMA Blkg % (1.0 μM): 96%

O=C(O)CC[C@H](NC(=O)N[C@@H](CCCCNc1cc(OCCOCCOCCn2cc(CCCF)nn2)ccc1[N+](=O)[O-])C(=O)O)C(=O)O [P251, (S)-2-(3-((S)-1-Carboxy-5-((5-(2-(2-(2-(4-(3-fluoropropyl)-1H-1,2,3-triazol-1-yl)ethoxy)ethoxy)ethoxy)-2-nitrophenyl)amino)pentyl)ureido)pentanedioic Acid]
Ki: 0.34 nM | PSMA Blkg % (1.0 μM): 100%

O=C(O)CCC(NC(=O)C[C@@H](NC(=O)CCNC(=O)c1cc(C(=O)NCCC(=O)N[C@H](CC(=O)NC(CCC(=O)O)C(=O)O)C(=O)O)cc(-n2cc(CCCF)nn2)c1)C(=O)O)C(=O)O (stereo partly drawn) [P252, (2S,2′S)-2,2′-(((3R,3′R)-3,3′-((3,3′-((5-(4-(3-Fluoropropyl)-1H-1,2,3-triazol-1-yl)isophthaloyl)bis(azanediyl))bis(propanoyl))bis(azanediyl))bis(3-carboxypropanoyl))bis(azanediyl))dipentanedioic Acid]
Ki: 94 nM | PSMA Blkg % (1.0 μM): 59%

O=C(O)CC[C@H](NC(=O)N[C@@H](Cc1ccc(NC(=O)c2cc(C(=O)O)cc(-n3cc(CCCF)nn3)c2)cc1)C(=O)O)C(=O)O [P253, (S)-2-(3-((S)-1-Carboxy-2-(4-(3-carboxy-5-(4-(3-fluoropropyl)-1H-1,2,3-triazol-1-yl)benzamido)phenyl)ethyl)ureido)pentanedioic Acid]
Ki: 0.2 nM | PSMA Blkg % (1.0 μM): 96%

O=C(O)CC[C@H](NC(=O)N[C@@H](CCCCNc1nc(-c2cccc(NC(=O)CCOCCOCCOCCOCCNC(=O)Cn3cc(CCCF)nn3)c2)cs1)C(=O)O)C(=O)O [P254, (S)-2-(3-((S)-1-Carboxy-5-(4-(3-(1-(4-(3-fluoropropyl)-1H-1,2,3-triazol-1-yl)-2-oxo-6,9,12,15-tetraoxa-3-azaoctadecanamido)phenyl)thiazol-2-ylamino)pentyl)ureido)-pentanedioic Acid]
Ki: 0.4 nM | PSMA Blkg % (1.0 μM): 95%

C[C@@](Cc1cccc(NC(=O)CCCn2cc(CCCF)nn2)c1)(NC(=O)N[C@@H](CCC(=O)O)C(=O)O)C(=O)O [P255, (S)-2-(3-((S)-2-Carboxy-1-(3-(4-(4-(3-fluoropropyl)-1H-1,2,3-triazol-1-yl)butanamido)-phenyl)propan-2-yl)ureido)pentanedioic Acid]
PSMA Blkg % (1.0 μM): 62%

C[C@@](Cc1cccc(NC(=O)Cn2cc(CCCF)nn2)c1)(NC(=O)N[C@@H](CCC(=O)O)C(=O)O)C(=O)O [P256, (S)-2-(3-((S)-2-Carboxy-1-(3-(2-(4-(3-fluoropropyl)-1H-1,2,3-triazol-1-yl)acetamido)-phenyl)propan-2-yl)ureido)pentanedioic Acid]
PSMA Blkg % (1.0 μM): 27%

O=C(O)CCC(C(=O)O)N1C(=O)N[C@@H](CC2CCN(C(=O)c3ccc(-n4cc(CCCF)nn4)cc3)CC2)C1=O (stereo partly drawn) [P257, 2-((S)-4-((1-(4-(4-(3-Fluoropropyl)-1H-1,2,3-triazol-1-yl)benzoyl)piperidin-4-yl)methyl)-2,5-dioxoimidazolidin-1-yl)pentanedioic Acid]
PSMA Blkg % (1.0 μM): 5%

NCCOCCOCCOCCOCCn1cc(-c2ccc(C(=O)NCCCC[C@H](NC(=O)N[C@@H](CCC(=O)O)C(=O)O)C(=O)O)cc2)nn1 [P258, (S)-2-(3-((S)-5-(4-(1-(14-Amino-3,6,9,12-tetraoxatetradecyl)-1H-1,2,3-triazol-4-yl)benzamido)-1-carboxypentyl)ureido)pentanedioic Acid]
Ki: 41 nM

O=C(O)CC[C@H](NC(=O)N[C@@H](CCCCNC(=O)c1cc(C(=O)O)cc(-n2cc(CCCF)nn2)c1)C(=O)O)C(=O)O [P259, (S)-2-(3-((S)-1-Carboxy-5-(3-carboxy-5-(4-(3-fluoropropyl)-1H-1,2,3-triazol-1-yl)benzamido)pentyl)ureido)pentanedioic Acid]
PSMA Blkg % (1.0 μM): 98%

CCN(CC)C(=O)c1cc(C(=O)NCCCC[C@H](NC(=O)N[C@@H](CCC(=O)O)C(=O)O)C(=O)O)cc(-n2cc(CCCF)nn2)c1 [P260, (S)-2-(3-((S)-1-Carboxy-5-(3-(diethylcarbamoyl)-5-(4-(3-fluoropropyl)-1H-1,2,3-triazol-1-yl)benzamido)pentyl)ureido)pentanedioic Acid]
PSMA Blkg % (1.0 μM): 81%

O=C(O)CC[C@H](NC(=O)N[C@@H](CCCCNC(=O)CC[C@H](NC(=O)Cn1cc(CCCF)nn1)C(=O)NCCCC[C@H](NC(=O)N[C@@H](CCC(=O)O)C(=O)O)C(=O)O)C(=O)O)C(=O)O [P261, (3S,7S,14S,23S,27S)-14-(2-(4-(3-Fluoropropyl)-1H-1,2,3-triazol-1-yl)acetamido)-5,13,17,25-tetraoxo-4,6,12,18,24,26-hexaazanonacosane-1,3,7,23,27,29-hexacarboxylic Acid]
Ki: 1 nM | PSMA Blkg % (1.0 μM): 98%

O=C(O)CC[C@H](NC(=O)N[C@@H](CCCCNC(=O)N1CCN(C(=O)c2cc(C(=O)O)cc(-n3cc(CCCF)nn3)c2)CC1)C(=O)O)C(=O)O [P262, (S)-2-(3-((S)-1-Carboxy-5-(4-(3-carboxy-5-(4-(3-fluoropropyl)-1H-1,2,3-triazol-1-yl)benzoyl)piperazine-1-carboxamido)pentyl)ureido)pentanedioic Acid]
PSMA Blkg % (1.0 μM): 96%

O=C(O)CC[C@H](NC(=O)N[C@@H](CCCCNC(=O)N1CCN(C(=O)c2cc(C(=O)N3CCN(C(=O)NCCCC[C@@H](NC(=O)N[C@H](CCC(=O)O)C(=O)O)C(=O)O)CC3)cc(-n3cc(CCCF)nn3)c2)CC1)C(=O)O)C(=O)O [P263, (2S,2′S)-2,2′-(((((1S,1′S)-((4,4′-(5-(4-(3-Fluoropropyl)-1H-1,2,3-triazol-1-yl)-isophthaloyl)bis(piperazine-1,1′-carbonyl))bis(azanediyl))bis(1-carboxypentane-5,1-diyl))bis(azanediyl))bis(carbonyl))bis(azanediyl))dipentanedioic Acid]
Ki: 1.3 nM | PSMA Blkg % (1.0 μM): 98%

CCN(CC)C(=O)c1cc(C(=O)N2CCN(C(=O)NCCCC[C@H](NC(=O)N[C@@H](CCC(=O)O)C(=O)O)C(=O)O)CC2)cc(-n2cc(CCCF)nn2)c1 [P264, (S)-2-(3-((S)-1-Carboxy-5-(4-(3-(diethylcarbamoyl)-5-(4-(3-fluoropropyl)-1H-1,2,3-triazol-1-yl)benzoyl)piperazine-1-carboxamido)pentyl)ureido)pentanedioic Acid]
PSMA Blkg % (1.0 μM): 96%

O=C(O)CC[C@H](NC(=O)N[C@@H](CCCCNc1nc(F)ccc1[N+](=O)[O-])C(=O)O)C(=O)O [P265, (S)-2-(3-((S)-1-Carboxy-5-((6-fluoro-3-nitropyridin-2-yl)amino)pentyl)ureido)pentanedioic Acid]
PSMA Blkg % (1.0 μM): 97%

O=C(O)CC[C@H](NC(=O)N[C@@H](CCCCNC(=O)c1cc(C(=O)Nc2ccc(C[C@H](NC(=O)N[C@@H](CCC(=O)O)C(=O)O)C(=O)O)cc2)cc(-n2cc(CCCF)nn2)c1)C(=O)O)C(=O)O [P267, (S)-2-(3-((S)-1-Carboxy-2-(4-(3-(((S)-5-carboxy-5-(3-((S)-1,3-dicarboxypropyl)ureido)pentyl)carbamoyl)-5-(4-(3-fluoropropyl)-1H-1,2,3-triazol-1-yl)benzamido)phenyl)ethyl)ureido)pentanedioic Acid]
PSMA Blkg % (1.0 μM): 82%

O=C(O)CC[C@H](NC(=O)N[C@@H](CCCCNC(=O)c1cc(C(=O)N[C@@H](CCC(=O)O)C(=O)O)cc(-n2cc(CCCF)nn2)c1)C(=O)O)C(=O)O [P268, (S)-2-(3-((S)-1-Carboxy-5-(3-(((S)-1,3-dicarboxypropyl)carbamoyl)-5-(4-(3-fluoropropyl)-1H-1,2,3-triazol-1-yl)benzamido)pentyl)ureido)pentanedioic Acid]
PSMA Blkg % (1.0 μM): 68%
